Test results from US10202343B2, “MIF modulators” (YALE UNIVERSITY, priority 2008, dated 2019).
pIC50: −log10 of the molar value. Like-named read-outs stand apart in the source and are kept apart here. Blank lines part the entries; values can stand above or below the compound they belong to.

Assays:
[1] = molecular target: T1, MIF-CD74 Binding (biotin-labeled recombinant human MIF, recombinant human MIF receptor CD74 ectodomain) (Homo sapiens, UniProt P14174); experiment: MIF-CD74 binding (capture) assay; conditions: for CD74 % MaxInhib: number before @; for CD74 IC50: Table 6, data cell c9
T1 sequence (P14174 2-115 limits assumed): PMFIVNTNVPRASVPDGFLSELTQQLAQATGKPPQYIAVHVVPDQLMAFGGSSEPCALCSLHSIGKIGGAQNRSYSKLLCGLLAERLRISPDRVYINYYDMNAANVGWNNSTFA

[2] = molecular target: T2, Human MIF (MIF tautomerase activity) (Homo sapiens, UniProt P14174); experiment: HPP tautomerase assay; format: biochemical; conditions: for HPP % MaxInhib: number before @; for pIC50: read-out: HPP IC50; for HPP IC50: Table 8
T2 construct: made in house
T2 sequence (P14174 2-115 limits assumed): T1 sequence (P14174 2-115 limits assumed)

concentration of CD74 % MaxInhib (number after @) ([1]; Table 10): 0.34 µM
CD74 % MaxInhib ([1]; Table 10): 22%
pIC50 ([2]; Table 10): 3.62
Compound: Fc1ccc2cc(-c3ccc(Cl)cc3)[nH]c2c1 [MIF-127]

concentration of CD74 % MaxInhib (number after @) ([1]; Table 10): 0.0039 µM
CD74 % MaxInhib ([1]; Table 10): 20%
pIC50 ([2]; Table 10): 3.55
Compound: Fc1ccc2[nH]c(-c3ccc(Cl)cc3)cc2c1 [MIF-128]

concentration of CD74 % MaxInhib (number after @) ([1]; Table 11): 0.12 µM
CD74 % MaxInhib ([1]; Table 11): 27%
pIC50 ([2]; Table 11): 3.31
Compound: Fc1ccc2nn(-c3ccc(Cl)cc3)cc2c1 [MIF-129]

concentration of CD74 % MaxInhib (number after @) ([1]; Table 12): 0.34 µM
CD74 % MaxInhib ([1]; Table 12): 21%
HPP % MaxInhib ([2]; Table 12): 28%
Compound: Fc1ccc2[nH]c(-c3ccc(Cl)cc3)nc2c1 [MIF-130]

concentration of CD74 % MaxInhib (number after @) ([1]; Table 11): 0.12 µM
CD74 % MaxInhib ([1]; Table 11): 29%
HPP % MaxInhib ([2]; Table 11): 30%
Compound: Fc1ccc2cn(-c3ccc(Cl)cc3)nc2c1 [MIF-131]

concentration of CD74 % MaxInhib (number after @) ([1]; Table 6): 0.078 µM
pIC50 ([2]; Table 6, data cell c7): 5.19
Compound: N#Cc1ccc(-n2sc3cc(F)ccc3c2=O)cc1 [MIF-133]

concentration of CD74 % MaxInhib (number after @) ([1]; Table 8): 0.078 µM
HPP IC50 [2]: agonist
Compound: c1ccc(-c2nc3ccccc3s2)cc1 [MIF-137]

concentration of CD74 % MaxInhib (number after @) ([1]; Table 8): 0.078 µM
CD74 % MaxInhib ([1]; Table 8): 20%
HPP IC50 [2]: agonist
Compound: Cc1ccc2nc(-c3ccccc3)sc2c1 [MIF-138]

Continued, compound first:

Compound: Clc1ccc2nc(-c3ccccc3)oc2c1 [MIF-120]
concentration of CD74 % MaxInhib (number after @) ([1]; Table 7): 0.078 µM
CD74 % MaxInhib ([1]; Table 7, data cell c7): 11%
concentration of HPP % MaxInhib (number after @) ([2]; Table 7): 0.1 µM
HPP % MaxInhib ([2]; Table 7, data cell c6): 13%

Compound: Clc1ccc(-c2nc3ccc(Cl)cc3o2)cc1 [MIF-121]
concentration of CD74 % MaxInhib (number after @) ([1]; Table 7): 0.078 µM
CD74 % MaxInhib ([1]; Table 7, data cell c7): 27%
HPP % MaxInhib ([2]; Table 7, data cell c6): 43%

Compound: Clc1ccc(-c2nc3cc(Cl)ccc3o2)cc1 [MIF-122]
concentration of CD74 % MaxInhib (number after @) ([1]; Table 7): 3.76 µM
CD74 % MaxInhib ([1]; Table 7, data cell c7): 13%
HPP % MaxInhib ([2]; Table 7, data cell c6): 31%

Compound: Cc1ccc2nc(-c3ccc(Cl)cc3)oc2c1 [MIF-123]
concentration of CD74 % MaxInhib (number after @) ([1]; Table 7): 3.76 µM
CD74 % MaxInhib ([1]; Table 7, data cell c7): 26%
concentration of HPP % MaxInhib (number after @) ([2]; Table 7): 50 µM
HPP % MaxInhib ([2]; Table 7, data cell c6): 14%

Compound: Cc1ccc2oc(-c3ccc(Cl)cc3)nc2c1 [MIF-124]
concentration of CD74 % MaxInhib (number after @) ([1]; Table 7): 0.078 µM
CD74 % MaxInhib ([1]; Table 7, data cell c7): 11%
concentration of HPP % MaxInhib (number after @) ([2]; Table 7): 1000 µM
HPP % MaxInhib ([2]; Table 7, data cell c6): 29%

Compound: O=C1c2cc(F)ccc2CN1c1ccc(Cl)cc1 [MIF-125]
concentration of CD74 % MaxInhib (number after @) ([1]; Table 9): 0.12 µM
CD74 % MaxInhib ([1]; Table 9): 19%
HPP % MaxInhib ([2]; Table 9): 45%

Compound: O=C1c2ccc(F)cc2CN1c1ccc(Cl)cc1 [MIF-126]
concentration of CD74 % MaxInhib (number after @) ([1]; Table 9): 0.078 µM
CD74 % MaxInhib ([1]; Table 9): 7%
concentration of HPP % MaxInhib (number after @) ([2]; Table 9): 100 µM
HPP % MaxInhib ([2]; Table 9): 32%

Compound: O=c1c2ccc(F)cc2sn1-c1cccc(Cl)c1 [MIF-132]
concentration of CD74 % MaxInhib (number after @) ([1]; Table 6): 0.078 µM
CD74 % MaxInhib ([1]; Table 6, data cell c8): 20%
pIC50 ([2]; Table 6, data cell c7): 5.30

Compound: O=c1c2ccc(F)c(F)c2sn1-c1ccc(Cl)cc1 [MIF-134]
concentration of CD74 % MaxInhib (number after @) ([1]; Table 6): 3.76 µM
CD74 % MaxInhib ([1]; Table 6, data cell c8): 11%
pIC50 ([2]; Table 6, data cell c7): 5.25

Compound: O=c1c2cc(F)ccc2sn1-c1ccc(Cl)cc1 [MIF-141]
CD74 IC50 [1]: agonist
pIC50 ([2]; Table 6, data cell c7): 5.25

Compound: COc1ccc(-n2sc3ccc(F)cc3c2=O)cc1 [MIF-142]
CD74 IC50 [1]: agonist
pIC50 ([2]; Table 6, data cell c7): 5.19

Compound: O=c1c2cc(F)c(F)cc2sn1-c1ccc(Cl)cc1 [MIF-143]
CD74 IC50 [1]: agonist
pIC50 ([2]; Table 6, data cell c7): 5.31
